Assay results reported in US11247998B2, “Piperazine heteroaryl derivative, preparation method therefor and use of same in medicine” (priority 2017, dated 2022).
Like-named read-outs stand apart in the source and are kept apart here.

Assays:
[1] = system: HBV DNA replication in HepG2.2.15 cells; assay: In vitro anti-HBV activity test (quantitative assay of intracellular HBV DNA), HepG2.2.15 cells, quantitative PCR; assay type: cell-based, hepatitis B virus (HBV); details: HBV DNA by quantitative PCR; for EC50: compound treatment Day 2 to Day 8; for Emax: read-out: Emax (effect value of the compound to maximally inhibit HBV DNA replication)
Procedure: In vitro anti-HBV activity test of the compound of the present invention (quantitative assay of intracellular HBV DNA)
HepG2.2.15 cell is a stable expression cell line that has integrated HBV genome.
Virus particles containing HBV DNA can be synthesized by replication, transcription and encapsidation in the cells, and then secreted. In this study, the quantitative analysis of HBV DNA produced by HepG2.2.15 in vitro proliferation was carried out by quantitative PCR method, thereby determining the activity of the compound of the present invention on inhibiting the HBV DNA replication by inhibiting the assembly of HBV capsid protein.
HepG2.2.15 cells were cultured in DMEM/high glucose medium (10% FBS, […] G418) and passaged every three days. On the day of the experiment, a cell suspension was prepared with fresh cell culture medium, and incubated in a 96-well plate (Corning, #3599) at 40,000 cells/well, at 5% carbon dioxide, 37° C. On Day 2, the compound was dissolved in pure DMSO at a concentration of 20 mM, and then the first concentration of 2 mM was formulated with DMSO, and diluted in 4-fold concentration gradient to 8 concentrations. A control well was added with 90 μl of DMSO. The compound solution was diluted 200-fold with DMEM/high glucose medium. The cell culture plate inoculated on Day 1 was taken out. The medium in the wells was removed by a negative pressure suction device, and the formulated medium containing the compound at each concentration was added respectively to each well at 200 μl/well. The plate was incubated at 37° C. for 72 hours. On Day 5, the medium of the cultured cells was replaced with fresh medium containing the same compound in the same way as Day 2, and then the plate was incubated at 37° C. for 72 hours. On Day 8, the cell culture plate was taken out, centrifuged at 300 g for 3 minutes, and the culture supernatant was collected at 200 μl/well. HBV DNA was extracted from the cell culture supernatant with Qiagen automatic DNA extraction device, and the specific method referred to the instructions of the reagents and instruments. Finally, the extracted DNA was eluted with DNA elution buffer at 100 μl/well. The extracted DNA was subjected to quantitative PCR analysis of HBV DNA using Hepatitis B virus nucleic acid quantitative detection kit (Triplex International Biosciences Co., Ltd.), and the specific method referred to the instruction of the kit. The quantitative standard curve was obtained with the standard sample provided in the kit, and the experiments were performed in parallel. Quantitative conversion of each sample was carried out according to the standard curve. Finally, the EC50 value of the compound was calculated with Graphpad Prism software according to each concentration of the compound and the corresponding DNA value.
The in vitro activity of the compound of the present invention on inhibiting the HBV DNA replication by inhibiting the assembly of HBV capsid protein was determined by the above experiment.

[2] = Pharmacokinetics assay in rats after intragastrical administration (LC/MS/MS of plasma); assay type: in vivo; details: SD rats, 2 mg/kg; for Vd/F / AUC / bioavailability / CL/F / half-life / Cmax / MRT: both sexes, rat, plasma, po; for Vd/F: read-out: Apparent distribution volume Vz/F; for AUC: read-out: Area under curve AUC; for bioavailability: read-out: Bioavailability (%) F %; for CL/F: read-out: Clearance CLz/F; for half-life: read-out: Half-life T1/2 (converted); for Cmax: read-out: Plasma concentration Cmax; for MRT: read-out: Residence time MRT
Procedure: Pharmacokinetics assay of the compound of the present invention
Rats were used as test animals. The drug concentration in plasma at different time points was determined by LC/MS/MS method after intragastrical administration of the compound of Example 1, the compound of Example 2, the compound of Example 4, the compound of Example 6, the compound of Example 7, the compound of Example 11, the compound of Example 39, the compound of Example 42, the compound of Example 44, the compound of Example 45 and the compound of Example 47 to rats. The pharmacokinetic behavior and property of the compound of the present invention were studied and evaluated in rats.
44 Healthy adult SD rats (half male and half female, 4 rats/group) were purchased from Shanghai Jiesijie Laboratory Animal Co., LTD, with Certificate No.: SCXK (Shanghai) 2013-0006.
A certain amount of the test compound was weighed, and added with 5% by volume of DMSO, 5% by volume of tween 80 and 90% by volume of normal saline to prepare a 0.2 mg/mL colorless, clear and transparent solution.
After an overnight fast, SD rats were administrated intragastrically with the test compound at an administration dose of 2.0 mg/kg and an administration volume of 10.0 mL/kg.
The rats were intragastrically administrated the compound of Example 1, the compound of Example 2, the compound of Example 4, the compound of Example 6, the compound of Example 7, the compound of Example 11, the compound of Example 39, the compound of Example 42, the compound of Example 44, the compound of Example 45 and the compound of Example 47. 0.1 ml of blood was taken from the orbit before administration and at 0.5, 1.0, 2.0, 4.0, 6.0, 8.0, 11.0 and 24.0 hours after administration. The samples were stored in heparinized tubes, and centrifuged for 10 minutes at 3500 rpm to separate the blood plasma. The plasma samples were stored at −20° C. The rats were fed two hours after administration.
The content of the test compound in the plasma of rats after intragastrical administration of the test compound at different concentrations was determined: 25 μL of rat plasma at each time after administration was taken, added with 40 μL of the internal standard solution of camptothecin (100 ng/mL) and 200 μL of acetonitrile, vortex-mixed for 5 minutes, and centrifuged for 10 minutes (4000 rpm). 0.2 μL of the supernatant was taken from the plasma samples for LC/MS/MS analysis.

HepG2 cells = assay: Effect on in vitro proliferation of HepG2 cells (CellTiter-Glo); assay type: cell-based
Procedure: (§1) Test Example 2. Effect of the Compound of the Present Invention on In Vitro Proliferation of HepG2 Cells
(§2) HepG2 cells in logarithmic growth phase were taken and digested with trypsin to prepare a cell suspension, which was incubated in a 96-well plate (transparent bottom white 96-well plate, PerkinElmer) at 6,000 cells/well, at 5% carbon dioxide, 37° C. for 16-20 hours. On Day 2, the compound was dissolved in pure DMSO at a concentration of 20 mM. The compound was diluted in 3-fold concentration gradient using an automatic pipetting station (Bravo), 8 concentration points for each compound, and the control well was DMSO. The compound formulated in DMSO at each concentration point was diluted 200-fold with EMEM (containing 10% FBS) medium. The cell culture plate inoculated on Day 1 was taken out. The medium in the wells was removed by a negative pressure suction device, and the formulated medium containing the compound at each concentration was added respectively to each well at 100 μl/well. The plate was incubated at 37° C. for 72 hours. On Day 5, the 96-well cell culture plate was taken out, and freshly formulated CellTiter Glo was added to each well at 100 μl/well. The 96-well plate was left to stand for 5-10 minutes, the bottom was then sealed with a white bottom sealing film (PerkinElmer). The plate was placed in the microplate reader to measure the luminescence signal. The CC50 value of the compound was calculated with Graphpad Prism software according to each concentration of the compound and the corresponding proliferation inhibition signal value.
(§3) The inhibition effect of the compound of the present invention on in vitro proliferation of HepG2 cells was determined by the above experiment.

[3] = as above; assay type: cell-based; details: human; HepG2 cells, 72 hours, CellTiter-Glo
Procedure: as §1, §2, §3

[4] = HepG2 cells, 72 hours, CellTiter-Glo, read-out: CC50

Structure (SMILES)	Emax (effect value of the compound to maximally inhibit HBV DNA replication) [1] [%]	EC50 [1] [nM]	Area under curve AUC [2] [ng·h/mL]	Bioavailability (%) F % [2] [%]	Clearance CLz/F [2] [mL/min/kg]	Half-life T1/2 [2] [h]	Plasma concentration Cmax [2] [ng/mL]	Residence time MRT [2] [h]	CC50 (HepG2 cells; [4]) [nM]	EC50 ([1]; Hepatitis B virus) [nM]	Emax ([1]; Hepatitis B virus) [%]	Vd/F [2] [L/kg]	AUC [2] [ng·h/mL]	bioavailability [2] [%]	CL/F [2] [mL/min/kg]	half-life [2] [h]	Cmax [2] [ng/mL]	MRT [2] [h]	CC50 at 72 h [3] [nM]	CC50 (HepG2 cells) [nM]
C[C@H]1Cn2nnc(C(=O)N[C@H](C)C(F)(F)F)c2CN1C(=O)Nc1ccc(F)c(C#N)c1 [Example 45, (S)—N^5-(3-Cyano-4-fluorophenyl)-6-methyl-N^3-((R)-1,1,1-trifluoropropan-2-yl)-6,7-dihydro-[1,2,3]triazolo[1,5-α]pyrazine-3,5(4H)-dicarboxamide]	102	38	17162 ± 5791	110	2.13 ± 0.73	19.2 ± 7.16	715 ± 187	27.4 ± 9.5	> 100000	–	–	–	–	–	–	–	–	–	–	–
C[C@H]1Cn2nnc(C(=O)N[C@H](C)C(F)(F)F)c2CN1C(=O)Nc1ccc(F)c(F)c1 [Example 39, (S)—N^5-(3,4-Difluorophenyl)-6-methyl-N^3-((R)-1,1,1-trifluoropropan-2-yl)-6,7-dihydro-[1,2,3]triazolo[1,5-α]pyrazine-3,5(4H)-dicarboxamide]	100	19	8105 ± 1585	114	4.21 ± 0.69	6.49 ± 1.71	682 ± 168	9.82 ± 1.75	> 100000	–	–	–	–	–	–	–	–	–	–	–
C[C@H]1Cn2cnc(C(=O)N[C@H](C)C(F)(F)F)c2CN1C(=O)Nc1ccc(F)c(F)c1 [Example 6, (S)—N^7-(3,4-Difluorophenyl)-6-methyl-N^1-((R)-1,1,1-trifluoropropan-2-yl)-5,6-dihydroimidazo[1,5-α]pyrazine-1,7(8H)-dicarboxamide]	–	–	–	–	–	–	–	–	–	4	100	2.16 ± 0.721	12900 ± 6600	120	3.22 ± 1.66	10.8 ± 8.1	629 ± 167	16.7 ± 10.1	> 100000	–
C[C@@H]1CN(C(=O)Nc2ccc(F)c(C#N)c2)Cc2c(C(=O)N[C@H](C)C(F)(F)F)nnn21 [Example 44, (R)—N^5-(3-Cyano-4-fluorophenyl)-7-methyl-N^3-((R)-1,1,1-trifluoropropan-2-yl)-6,7-dihydro-[1,2,3]triazolo[1,5-α]pyrazine-3,5(4H)-dicarboxamide]	–	–	–	–	–	–	–	–	–	60	99	4.13 ± 0.26	11800 ± 3100	94	2.99 ± 0.78	17 ± 5.05	509 ± 39.4	24.2 ± 7.38	> 100000	–
C[C@H](NC(=O)c1nnn2c1CN(C(=O)Nc1ccc(F)c(F)c1)[C@@H](C)C2)C(F)(F)F [Example 43, (S)—N^5-(3,4-Difluorophenyl)-6-methyl-N^3—((S)-1,1,1-trifluoropropan-2-yl)-6,7-dihydro-[1,2,3]triazolo[1,5-α]pyrazine-3,5(4-)-dicarboxamide]	99	39	–	–	–	–	–	–	–	–	–	–	–	–	–	–	–	–	–	> 100000
